Data set [1] concerns Puccinia recondite f. Sp. Tritici. The data set can be described thus: Fungicidal activity against Puccinia recondite f. sp. tritici / wheat / leaf disc curative (brown rust). It counts as in vivo. The note with it: foliar, 200 ppm in the applied formulation, wheat leaf segments cv. Kanzler, applied 1 day after inoculation, assessed 6 to 8 days after application, read-out: disease control compared to untreated control leaf disks. The method, then:
(§1) Leaf disks or leaf segments of various plant species are cut from plants grown in a greenhouse. The cut leaf disks or segments are placed in multiwell plates (24-well format) onto water agar. The leaf disks are sprayed with a test solution before (preventative) or after (curative) inoculation. Compounds to be tested are prepared as DMSO solutions (max. 10 mg/ml) which are diluted to the appropriate concentration with 0.025% Tween20 just before spraying. The inoculated leaf disks or segments are incubated under defined conditions (temperature, relative humidity, light, etc.) according to the respective test system. A single evaluation of disease level is carried out 3 to 14 days after inoculation, depending on the pathosystem. Percent disease control relative to the untreated check leaf disks or segments is then calculated.
Wheat leaf segments cv. Kanzler are placed on agar in multiwell plates (24-well format). The leaf segments are then inoculated with a spore suspension of the fungus. Plates were stored in darkness at 19° C. and 75% relative humidity. The formulated test compound diluted in water was applied 1 day after inoculation. The leaf segments were incubated at 19° C. and 75% relative humidity under a light regime of 12 hours light/12 hours darkness in a climate cabinet and the activity of a compound was assessed as percent disease control compared to untreated when an appropriate level of disease damage appears in untreated check leaf segments (6 to 8 days after application).
(§2) The following compounds at 200 ppm in the applied formulation give at least 80% disease control in this test when compared to untreated control leaf disks under the same conditions, which show extensive disease development.

Another data set relates to Phakopsora pachyrhizi. The data set is described as follows: Fungicidal activity against Phakopsora pachyrhizi / soybean / leaf disc preventative (Asian soybean rust). It counts as in vivo. The note with it: foliar, 200 ppm in the applied formulation, soybean leaf disks, inoculated one day after application, assessed 12 to 14 days after application, read-out: disease control compared to untreated control leaf disks. As for the experimental part:
as §1
Soybean leaf disks are placed on water agar in multiwell plates (24-well format) and sprayed with the formulated test compound diluted in water. One day after application leaf discs are inoculated by spraying a spore suspension on the lower leaf surface. After an incubation period in a climate cabinet of 24-36 hours in darkness at 20° C. and 75% rh leaf disc are kept at 20° C. with 12 h light/day and 75% rh. The activity of a compound is assessed as percent disease control compared to untreated when an appropriate level of disease damage appears in untreated check leaf disks (12 to 14 days after application).
as §2

The subject of data set [2] is Glomerella lagenarium (Colletotrichum lagenarium). The data set can be described thus: Fungicidal activity against Glomerella lagenarium (Colletotrichum lagenarium) liquid culture / cucumber / preventative (anthracnose). It counts as cell-based. Particulars: Colletotrichum orbiculare; 20 ppm in the applied formulation; liquid culture in PDB, 24° C.; 3 to 4 days after application; read-out: disease control compared to untreated control (inhibition of growth measured photometrically). As for the experimental part: Mycelia fragments or conidia suspensions of a fungus prepared either freshly from liquid cultures of the fungus or from cryogenic storage, are directly mixed into nutrient broth. DMSO solutions of the test compound (max. 10 mg/ml) are diluted with 0.025% Tween20 by a factor of 50 and 10 μl of this solution is pipetted into a microtiter plate (96-well format). The nutrient broth containing the fungal spores/mycelia fragments is then added to give an end concentration of the tested compound. The test plates are incubated in the dark at 24° C. and 96% relative humidity. The inhibition of fungal growth is determined photometrically after 2 to 7 days, depending on the pathosystem, and percent antifungal activity relative to the untreated check is calculated.
Conidia of the fungus from cryogenic storage are directly mixed into nutrient broth (PDB—potato dextrose broth). After placing a (DMSO) solution of test compound into a microtiter plate (96-well format), the nutrient broth containing the fungal spores is added. The test plates are incubated at 24° C. and the inhibition of growth is measured photometrically 3 to 4 days after application.
The following compounds at 20 ppm in the applied formulation give at least 80% disease control in this test when compared to untreated control under the same conditions, which show extensive disease development.

The subject of data set [3] is Puccinia recondita f. Sp. Tritici. The data set is described as follows: Fungicidal activity against Puccinia recondita f. sp. tritici / wheat / leaf disc preventative (brown rust). It counts as in vivo. Particulars: foliar, 200 ppm in the applied formulation, wheat leaf segments cv. Kanzler, inoculated 1 day after application, assessed 7 to 9 days after application, read-out: disease control compared to untreated control leaf disks. As for the experimental part:
as §1, with “calculated. Wheat leaf segments cv. Kanzler were placed on agar in multiwell plates (24-well format) and sprayed with the formulated test compound diluted in water. The leaf disks were inoculated with a spore suspension of the fungus 1 day after application. The inoculated leaf segments were incubated at 19° C. and 75% relative humidity (rh) under a light regime of 12 hours light/12 hours darkness in a climate cabinet and the activity of a compound was assessed as percent disease control compared to untreated when an appropriate level of disease damage appears in untreated check leaf segments (7 to 9 days after application). The following compounds at 200 ppm in the applied formulation give at least 80% disease control in this test when compared to untreated control leaf disks under the same conditions, which show extensive disease development.” for “calculated.”

One may read the melting point as the temperature of the solid-liquid transition. As a reminder, the inhibition is the relative decrease from the control value, in per cent. `O=C(NCC1CC1)C(=O)c1ccc(-c2noc(C(F)(F)F)n2)cc1` [Compound 1.43, N-(cyclopropyl-methyl)-2-oxo-2-[4-[5-(trifluoromethyl)-1,2,4-oxadiazol-3-yl]phenyl]acetamide] displayed a melting point of 86 to 95 °C. Also, the pest or weed control at 200 ppm in data set [1] is not below 80%. For the same compound, in the data set on Phakopsora pachyrhizi, the pest or weed control at 200 ppm was not below 80%. Besides, the inhibition at 20 ppm in data set [2] was not below 80%. Also, in data set [3], the pest or weed control at 200 ppm is not below 80%.

`C#CCNC(=O)C(=O)c1ccc(-c2noc(C(F)(F)F)n2)cc1` [Compound 1.41, 2-oxo-N-prop-2-ynyl-2-[4-[5-(trifluoromethyl)-1,2,4-oxadiazol-3-yl]phenyl]acetamide] displayed a melting point of 79 to 84 °C. Moreover, the pest or weed control at 200 ppm in data set [1] is not below 80%. Further, the pest or weed control at 200 ppm in the data set on Phakopsora pachyrhizi is not below 80%. Also, the inhibition at 20 ppm in data set [2] is not below 80%. Moreover, the pest or weed control at 200 ppm in data set [3] is not below 80%.

In the case of `O=C(NC1CCCC1(F)F)C(=O)c1ccc(-c2noc(C(F)(F)F)n2)cc1` (stereo not drawn) [Compound 1.34, N-(2,2-difluoro-cyclopentyl)-2-oxo-2-[4-[5-(trifluoromethyl)-1,2,4-oxadiazol-3-yl]phenyl]acetamide], the melting point lay in the range of 64 to 70 °C. In addition, the pest or weed control at 200 ppm in data set [1] is not below 80%. In the data set on Phakopsora pachyrhizi, the pest or weed control at 200 ppm was not below 80%. Further, in data set [2], the inhibition at 20 ppm is not below 80%. Also, in data set [3], the pest or weed control at 200 ppm is not below 80%.

Take `COc1cccc(NC(=O)C(=O)c2ccc(-c3noc(C(F)(F)F)n3)cc2)n1` [Compound 1.24, N-(6-methoxy-2-pyridyl)-2-oxo-2-[4-[5-(trifluoromethyl)-1,2,4-oxadiazol-3-yl]phenyl]acetamide]: the melting point is 118 to 120 °C. Moreover, the pest or weed control at 200 ppm in the data set on Phakopsora pachyrhizi is not below 80%. Further, the inhibition at 20 ppm in data set [2] was not below 80%. The pest or weed control at 200 ppm in data set [3] is not below 80%.

`O=C(NCCF)C(=O)c1ccc(-c2noc(C(F)(F)F)n2)cc1` [Compound 1.31, N-(2-fluoroethyl)-2-oxo-2-[4-[5-(trifluoromethyl)-1,2,4-oxadiazol-3-yl]phenyl]acetamide]: the melting point is 94 to 100 °C. For the same compound, the pest or weed control at 200 ppm in data set [1] is not below 80%. Moreover, the pest or weed control at 200 ppm in the data set with Phakopsora pachyrhizi was not below 80%. In data set [2], the inhibition at 20 ppm is not below 80%. In addition, the pest or weed control at 200 ppm in data set [3] was not below 80%.

`CCNC(=O)C(=O)c1ccc(-c2noc(C(F)(F)F)n2)cc1` [Compound 1.39, N-ethyl-2-oxo-2-[4-[5-(trifluoromethyl)-1,2,4-oxadiazol-3-yl]phenyl]acetamide]: the melting point lay within 105 to 110 °C. Further, the pest or weed control at 200 ppm in data set [1] was not below 80%. Moreover, the pest or weed control at 200 ppm with Phakopsora pachyrhizi was not below 80%. Also, the inhibition at 20 ppm in data set [2] was not below 80%. Moreover, the pest or weed control at 200 ppm in data set [3] is not below 80%.

With `CC(C)(C)OC(=O)NCCNC(=O)C(=O)c1ccc(-c2noc(C(F)(F)F)n2)cc1` [Compound 1.37, tert-butyl N-[2-[[2-oxo-2-[4-[5-(trifluoromethyl)-1,2,4-oxadiazol-3-yl]phenyl]acet-yl]amino]eth-yl]carbamate], the melting point is 155 to 156 °C. Besides, the pest or weed control at 200 ppm in the data set with Phakopsora pachyrhizi is not below 80%. In addition, the pest or weed control at 200 ppm in data set [3] was not below 80%.

`CCN1OCC(NC(=O)C(=O)c2ccc(-c3noc(C(F)(F)F)n3)cc2)C1=O` (stereo not drawn) [Compound 1.21, N-(2-ethyl-3-oxo-isoxazolidin-4-yl)-2-oxo-2-[4-[5-(trifluoromethyl)-1,2,4-oxadiazol-3-yl]phenyl]acetamide] displayed a melting point of 162 to 165 °C. Moreover, the pest or weed control at 200 ppm in data set [1] is not below 80%. In the data set with Phakopsora pachyrhizi, the pest or weed control at 200 ppm was not below 80%. For the same compound, the inhibition at 20 ppm in data set [2] was not below 80%. The pest or weed control at 200 ppm in data set [3] is not below 80%.

Turning to `C=CCNC(=O)C(=O)c1ccc(-c2noc(C(F)(F)F)n2)cc1` [Compound 1.25, N-allyl-2-oxo-2-[4-[5-(trifluoromethyl)-1,2,4-oxadiazol-3-yl]phenyl]acetamide], the melting point lay within 71 to 74 °C. Also, in data set [1], the pest or weed control at 200 ppm was not below 80%. The pest or weed control at 200 ppm in the data set with Phakopsora pachyrhizi is not below 80%. Besides, the inhibition at 20 ppm in data set [2] was not below 80%. The pest or weed control at 200 ppm in data set [3] was not below 80%.
